{
  "source": "patent US12343326B2",
  "about": "“Psychoactive medicines and their use for treating psychiatric and neurological conditions and disorders” (Transcend Therapeutics, Inc., priority 2021, dated 2025)",
  "key": {"Male Sprague Dawley rats": {"tested_on": "Male Sprague Dawley rats", "experiment": "Forced Swim Test (FST)", "format": "in vivo, rat", "from_the_text": "The Forced Swim Test (FST) is a classic, and the most used preclinical behavioral assay to screen compounds with antidepressant-like activity and has high predictive and face validity (Porsolt et al. (1977) Nature 266:730; Borsini and Meli (1988) Psychopharmacology 94:147). The premise of the FST is that when rats are placed into a cylinder filled with water, they will initially try to escape, but over time will become immobile. This increased immobility reflects behavioral despair, modeling a depressive-like state.\nForced Swim Test (FST): In the FST trial, rats were placed in a circular plexiglass container filled with water, with no means of escape. Water temperature was maintained at 22-25° C. and changed for every animal. After an acclimation period, rats were timed for inactivity (failure to struggle), activity, swim time and climbing time. Day 1 consisted of a 15 min acclimation trial, and Day 2 (24 h later) consisted of the 5 min test. A time sampling procedure was employed where animals were observed every 5 sec and scored for immobility, swimming, or climbing. Fluoxetine (10 mg/kg, IP, Sigma Aldrich) or 0.9% sterile saline vehicle (vehicle 3× group) were administered 23.5, 5, and 1 h before testing in the FST. […] The experimenter was blinded to treatment.\nForced Swim Test: In the FST trial, rats were placed in a circular plexiglass container filled with water, with no means of escape. Water temperature was maintained at 22-25° C. and changed for every animal. After an acclimation period, rats were timed for inactivity (failure to struggle), activity, swim time and climbing time. Day 1 consisted of a 15 min acclimation trial, and Day 2 (24 h later) consisted of the 5 min test. A time sampling procedure was employed where animals were observed every 5 sec and scored for immobility, swimming, or climbing. Fluoxetine (10 mg/kg, IP, Sigma Aldrich) or 0.9% sterile saline vehicle (vehicle 3× group) were administered 23.5, 5, and 1 h before testing in the FST. 2C-B (2.5, 10, or 20 mg/kg, IP, Cayman Chemical) or 0.9% saline vehicle (vehicle 1× group) were administered 30 min prior to FST testing. The experimenter was blinded to treatment.\nDrug Treatment: Fluoxetine (10 mg/kg, IP, Sigma Aldrich) or 0.9% sterile saline vehicle were administered 23.5, 5, and 1 h before testing in the FST. […] Control animals received fluoxetine alone, methylone alone, or saline vehicle.\nForced Swim Test: In the FST trial, rats were placed in a circular plexiglass container filled with water, with no means of escape. Water temperature was maintained at 22-25° C. and changed for every animal. After an acclimation period, rats were timed for inactivity (failure to struggle), activity, swim time and climbing time. The experimenter and scorer were blind to treatment group. Day 1 consisted of a 15 min acclimation trial, and Day 2 (24 h later) consisted of the 5 min test. A time sampling procedure was employed where animals were observed every 5 sec and scored for immobility, swimming, or climbing.\nControl animals received saline vehicle. The dosing schedule and experimental design are found in FIG. 12A.\nThe FST was performed and scored by an experimenter blind to treatment group according to standard protocols and based on a “modified FST” procedure (Slattery and Cryan (2012) Nat Protoc, 7:1009). Briefly, rats were placed in a circular plexiglass container (29.2 cm diameter, 49.5 cm height) filled with water to a depth of 30 cm so rats could not support themselves by touching the bottom of the tank. Water was maintained at 22-25° C. and was changed for every animal. Day 1 (Training) consisted of a 15 min acclimation trial, and Day 2 (Testing, 24 h later) consisted of the 5 min test. […]"}, "[1]": {"tested_on": "myelin basic protein (MBP)", "experiment": "Immunohistochemistry of myelin basic protein", "format": "in vivo, rat", "conditions": "10 mg/kg IP, 24 h", "experimental": "Immunohistochemistry: The in-life portion of the study was conducted at WuXi Apptec (Cranbury, NJ). Sectioning and staining of brains took place at Neuroscience Associates (NSA, Knoxville, TN). […] Brains were post-fixed in PFA before shipment to NSA for processing and staining. Hemisected brains were mounted, sectioned and stained using standard protocols with myelin-basic protein primary antibody (MBP SMI-99, 1:5000, Biolegend, San Diego, CA) and anti-mouse biotinylated secondary antibody (BA-2001, Vector Laboratories, Newark, CA). Slides were imaged using a Huron Digital Pathology TissueScope LE120 whole slide scanning system. 20× objective was used with a 0.4 μm/pixel resolution."}},
  "data": [
    {"smiles": "CNC(C)C(=O)c1ccc2c(c1)OCO2", "note": "(stereo not shown) [methylone, 3,4-methylenedioxy-N-methylcathinone]", "values": [
      {"measurement": "climbing behavior (FST)", "setting": "Male Sprague Dawley rats; Example 8", "value": "significantly increased climbing behavior"},
      {"measurement": "effectiveness in the FST", "setting": "Male Sprague Dawley rats; doses of 10 mg/kg or more", "value": "maximally effective"},
      {"measurement": "antidepressant-like effect (FST), multiple lower doses", "setting": "Male Sprague Dawley rats; four […] IP doses 20.5, 8.5, 4.5 and 0.5 hours before testing", "value": "significant antidepressant-like effects"},
      {"measurement": "climbing (FST)", "setting": "Male Sprague Dawley rats; methylone IP dose range, 30 min before testing", "value": "only increased at the lowest dose"},
      {"measurement": "swimming (FST)", "setting": "Male Sprague Dawley rats; mid and high doses of methylone IP, 30 min before testing", "value": "significantly increased swimming"},
      {"measurement": "antidepressant-like effect (FST) vs. vehicle", "setting": "Male Sprague Dawley rats; single dose 15 mg/kg PO, 2 hours before testing", "value": "significant antidepressant-like effect"},
      {"measurement": "immobility (FST) vs. saline vehicle", "setting": "Male Sprague Dawley rats; single dose 5, 10, 15, 20 and 30 mg/kg IP, 30 min before testing", "value": "significantly reduced immobility"},
      {"measurement": "MBP expression, basolateral nucleus of the amygdala, vs. vehicle", "setting": "[1]", "value": "significant reduction in MBP"},
      {"measurement": "MBP expression, central nucleus of the amygdala, vs. vehicle", "setting": "[1]", "value": "significant reduction in MBP"},
      {"measurement": "MBP expression, cortex (control region)", "setting": "[1]", "value": "No change in MBP"}
    ]}
  ]
}
